Measured values: patent publication US7271274B2, “Phenolic antioxidants for the treatment of disorders including arthritis, asthma and coronary artery disease” (AhteroGenics, Inc., priority 2004, dated 2007)

Assays:
[1] = tested on: VCAM-1; assay: In Vitro VCAM-1 Assay - Method 1 (TNF-α stimulated endothelial cells, surface VCAM-1 ELISA); assay type: cell-based; conditions: Homo sapiens, Endothelial cell; HAEC or HPAEC, TNF-α 1 ng/ml with compound approximately 16 hours
Procedure: Cell Culture and compound dosing: Cultured primary human aortic (HAEC) or pulmonary (HPAEC) endothelial cells were obtained from Clonetics, Inc., and were used below passage 9. Cells were seeded in 96 well plates such that they would reach 90–95% confluency by the following day. On the following day the cells were stimulated with TNF-α (1 ng/ml) in the presence or absence of compounds dissolved in DMSO such that the final concentration of DMSO is 0.25% or less. To establish a dose curve for each compound, four concentrations in 2- to 5-fold increments were used. Cells were exposed to TNF-α and compounds for approximately 16 hours. The next day the cells were examined under microscope to score for visual signs of toxicity or cell stress.
Following 16 hr exposure to TNF-α and compound the media was discarded and the cells were washed once with Hanks Balanced Salt Solution (HBSS)/Phosphate buffered saline (PBS) (1:1). Primary antibodies against VCAM-1 (0.25 μg/ml in HBSS/PBS+5% FBS) were added and incubated for 30–60 minutes at 37° C. Cells were washed with HBSS/PBS three times, and secondary antibody Horse Radish Peroxidase (HRP)-conjugated goat anti-mouse IgG (1:500 in HBSS/PBS+5% FBS) were added and incubated for 30 minutes at 37° C. Cells were washed with HBSS/PBS four time and TMB substrate were added and incubated at room temperature in the dark until there was adequate development of blue color. The length of time of incubation was typically 5–15 minutes. 2N sulfuric acid was added to stop the color development and the data was collected by reading the absorbance on a BioRad ELISA plate reader at OD 450 nm. The results are expressed as IC50 values (the concentration (micromolar) of compound required to inhibit 50% of the maximal response of the control sample stimulated by TNF-α only). IC50's of tested compounds are tabulated in Biological Table 1.

[2] = tested on: VCAM-1; assay: In Vitro VCAM-1 Assay - Method 2 (19 h predosing, 4 h TNFα stimulation, surface VCAM-1); assay type: cell-based; conditions: Homo sapiens; HAEC or HPAEC, predosed 19 hours, TNFα 1.5 ng/ml 4 hours
Procedure: Cultured primary human aortic (HAEC) or pulmonary artery (HPAEC) endothelial cells are obtained from BioWhittaker (formerly Clonetics), and are used below passage 9. Cells are seeded in 96-well plates such that they will reach ˜95% confluency by the following day (i.e.10,000 cells/well). Compounds are reconstituted in DMSO (100%) and sonicated to ensure maximum dissolution. Dilutions are then made in DMSO to 500× of final concentrations. These stocks are then diluted 500× into cell culture media (EGM-2 Mv, BioWhittaker) and placed overnight in tissue culture incubator (37° C., 5% CO2) to allow maximum dissolution).
Media is removed from the cells and replaced with the prewarmed dosing media. Cells are predosed in this manner for 19 hours at 37° C., 5% CO2. Remove media again from the cells and replace with prepared dosing media containing TNFα (1.5 ng/ml). Allow stimulation to continue for 4 hours at 37° C., 5% CO2. Media is removed and saved for evaluation of secreted factors as needed. Cells are used for quantitating surface VCAM-1, followed by Hoescht nuclear stain for cell number to determine toxicity. Assay for surface VCAM-1 continues as described in Method 1. IC50's of tested compounds are tabulated in Biological Table 1.

[3] = tested on: Balb/C mice; assay: In vivo asthma model (ovalbumin-sensitized mice, BAL fluid eosinophilia); conditions: 25 mg/kg, sc, qd; BALF eosinophilia vs vehicle control
Procedure: Balb/C mice (6–8 weeks old) were sensitized to ovalbumin (ova) (8 ug ova absorbed in 3.3 mg Alum inject) on days 0 and 5. On day 12, the mice were aerosol challenged with 0.5% ovalbumin dissolved in sterile saline for 1 hr in the AM, and then again in the PM (at least 4 hr apart). On day 14, the mice were anesthetized with ketamine/xylazine/acepromazine cocktail, exsanguinated, and then euthanized. Following blood collection, bronchoaveolar lavage (BAL) was performed on each animal. Total cell counts were conducted on the lavage fluid, which was subsequently diluted with cell media 1:1. Slides of the lavage fluid were made by spinning the samples with a cytospin centrifuge and then air drying. Cell differentials of the lavage fluid were determined by microscopic evaluation of hematoxylin and eosin-stained slides. Data are expressed as the % inhibition of eosinophilia in the BAL fluid compared to the vehicle control. […] The formulations used contained various mixtures of the following excipients (propylene glycol, polyethylene glycol, Tween 80, Glycofurol).

[4] = tested on: TNF-α; assay: Cytokine screening: LPS-induced secretion of TNF-α from hPBMCs; assay type: cell-based; conditions: Homo sapiens, Biological Table 3; LPS-induced secretion from hPBMN cells; average of at least three determinations
Procedure: Fresh cryopreserved hPBMCs (1 million cells/ml; Clonetics, Inc.) were pretreated with test compound for 1 hr in lymphocyte growth media-3 (Clonetics, Inc.), followed by stimulation with 1 μg/ml of LPS for another 2 hr in the presence of test compound. Conditioned media was collected and assayed for secreted TNF-α, IL-1β and […] using commercially available human ELISA kits (R&D Systems). Samples were measured in duplicate and data presented as mean ± standard deviation. Each experiment was repeated at least three times with similar results.

[5] = tested on: Female Lewis rats; assay: In vivo rheumatoid arthritis model (Freund's complete adjuvant, paw swelling); conditions: paw swelling vs vehicle control
Procedure: Female Lewis rats (200–250 g) were sensitized with Freund's complete adjuvant (100 ug) by subcutaneous injection at the base of the tail. Paw swelling was monitored by measuring the volume of each foot with a plethysmometer on days 5, 8, 12–15. Animals were euthanized on day 15. […] Data is expressed as the % inhibition of paw swelling (AUC of the paw volume vs time curve d5–15) compared with vehicle control. The formulations used contained various mixtures of the following excipients (propylene glycol, polyethylene glycol, Tween 80, Glycofurol).

SMILES | IC50 [1] [µM] | melting point [°C] | IC50 [2] [µM] | Inhibition of BAL fluid eosinophilia (asthma model) [3] [percentage] | IC50 [4] [µM] | Rheumatoid arthritis model (25 mg/kg, sc, qd, inhibition of paw swelling in percentage) [5] [percentage]
CC(C)(Sc1cc(C(C)(C)C)c(O)c(C(C)(C)C)c1)Sc1cc(C(C)(C)C)c(OCC(=O)NCC(=O)O)c(C(C)(C)C)c1 [Ex-3, (2-{2,6-Di-tert-butyl-4-[1-(3,5-di-tert-butyl-4-hydroxyphenylsulfanyl)-1-methylethylsulfanyl]phenoxy}acetylamino)acetic acid] | 6 | – | – | – | – | –
CN(CC(=O)O)C(=O)COc1c(C(C)(C)C)cc(SC(C)(C)Sc2cc(C(C)(C)C)c(O)c(C(C)(C)C)c2)cc1C(C)(C)C [Ex-4, [(2-{2,6-Di-tert-butyl-4-[1-(3,5-di-tert-butyl-4-hydroxyphenylsulfanyl)-1-methylethylsulfanyl]phenoxy}acetyl)methylamino]acetic acid] | 7 | 115 to 119 | – | – | – | –
CC(C)(Sc1cc(C(C)(C)C)c(O)c(C(C)(C)C)c1)Sc1cc(C(C)(C)C)c(OCC(=O)NCCC(=O)O)c(C(C)(C)C)c1 [Ex-5, 3-(2-{2,6-Di-tert-butyl-4-[1-(3,5-di-tert-butyl-4-hydroxyphenylsulfanyl)-1-methylethylsulfanyl]phenoxy}acetylamino)propionic acid] | 6 | – | – | – | – | –
CC(C)(Sc1cc(C(C)(C)C)c(O)c(C(C)(C)C)c1)Sc1cc(C(C)(C)C)c(OCC(=O)NC(CO)CO)c(C(C)(C)C)c1 [Ex-6, 2-{2,6-Di-tert-butyl-4-[1-(3,5-di-tert-butyl-4-hydroxyphenylsulfanyl)-1-methyl-ethylsulfanyl]phenoxy}-N-(2-hydroxy-1-hydroxymethyl-ethyl)acetamide] | 6 | 163 to 164 | – | – | – | –
CC(C)(Sc1cc(C(C)(C)C)c(O)c(C(C)(C)C)c1)Sc1cc(C(C)(C)C)c(OCC[C@H](O)CO)c(C(C)(C)C)c1 [Ex-10, 4-{2,6-Di-tert-butyl-4-[1-(3,5-di-tert-butyl-4-hydroxy-phenylsulfanyl)-1-methyl-ethylsulfanyl]-phenoxy}-butane-1,2(S)-diol] | 40 | 110 to 112 | 8 | 78 | 3.8 | 85
CC(C)(Sc1cc(C(C)(C)C)c(O)c(C(C)(C)C)c1)Sc1cc(C(C)(C)C)c(OCC[C@@H](O)CO)c(C(C)(C)C)c1 [Ex-11, 4-{2,6-Di-tert-butyl-4-[1-(3,5-di-tert-butyl-4-hydroxy-phenylsulfanyl)-1-methyl-ethylsulfanyl]-phenoxy}-butane-1,2(R)-diol] | > 50 | – | 7 | 95 | 4.4 | 85
CC(C)(Sc1cc(C(C)(C)C)c(O)c(C(C)(C)C)c1)Sc1cc(C(C)(C)C)c(OCCC[C@H](O)CO)c(C(C)(C)C)c1 [Ex-13, 5-{2,6-Di-tert-butyl-4-[1-(3,5-di-tert-butyl-4-hydroxy-phenylsulfanyl)-1-methyl-ethylsulfanyl]-phenoxy}-pentane-1,2(S)-diol] | – | 68 to 71 | 11 | 60 | – | –
CC(C)(Sc1cc(C(C)(C)C)c(O)c(C(C)(C)C)c1)Sc1cc(C(C)(C)C)c(OCCC(O)C(O)CCO)c(C(C)(C)C)c1 (stereo not drawn) [Ex-14, 6-{2,6-Di-tert-butyl-4-[1-(3,5-di-tert-butyl-4-hydroxy-phenylsulfanyl)-1-methyl-ethylsulfanyl]-phenoxy}-hexane-1,3,4-triol] | 21 | 75 to 77 | 9.2 | 84 | – | –
COC[C@H](O)[C@@H](O)COc1c(C(C)(C)C)cc(SC(C)(C)Sc2cc(C(C)(C)C)c(O)c(C(C)(C)C)c2)cc1C(C)(C)C [Ex-15, 1-{2,6-Di-tert-butyl-4-[1-(3,5-di-tert-butyl-4-hydroxyphenylsulfanyl)-1-methylethylsulfanyl]phenoxy}-4-methoxybutane-2(S),3(S)-diol] | – | 62 to 64 | – | – | – | –
COC[C@@H](O)[C@H](O)COc1c(C(C)(C)C)cc(SC(C)(C)Sc2cc(C(C)(C)C)c(O)c(C(C)(C)C)c2)cc1C(C)(C)C [Ex-16, 1-{2,6-Di-tert-butyl-4-[1-(3,5-di-tert-butyl-4-hydroxyphenylsulfanyl)-1-methylethylsulfanyl]phenoxy}-4-methoxybutane-2(R),3(R)-diol] | – | 68 to 70 | – | 44 | – | 63
CC(C)(Sc1cc(C(C)(C)C)c(O)c(C(C)(C)C)c1)Sc1cc(C(C)(C)C)c(OCC(CO)CO)c(C(C)(C)C)c1 [Ex-18, 2-{2,6-Di-tert-butyl-4-[1-(3,5-di-tert-butyl-4-hydroxyphenylsulfanyl)-1-methylethyl-sulfanyl]phenoxymethyl}propane-1,3-diol] | 13 | – | 6 | 60 | 4.5 | 83
COCCOCCOCCOc1c(C(C)(C)C)cc(SC(C)(C)Sc2cc(C(C)(C)C)c(O)c(C(C)(C)C)c2)cc1C(C)(C)C [Ex-19, 2,6-Di-tert-butyl-4-[1-(3,5-di-tert-butyl-4-{2-[2-(2-methoxyethoxy)-ethoxy]ethoxy}-phenyl-sulfanyl)-1-methylethylsulfanyl]phenol] | > 50 | – | – | – | – | –
CCOC1O[C@H](CO)[C@@H](COc2c(C(C)(C)C)cc(SC(C)(C)Sc3cc(C(C)(C)C)c(O)c(C(C)(C)C)c3)cc2C(C)(C)C)O1 (stereo partly drawn) [compound 9, 2,6-Di-tert-butyl-4-{1-[3,5-di-tert-butyl-4-(2-ethoxy-5(R)-hydroxymethyl-[1,3]dioxolan-4(R)-ylmethoxy)-phenylsulfanyl]-1-methyl-ethylsulfanyl}-phenol] | – | 60 to 62 | – | – | – | –
CC(C)(Sc1cc(C(C)(C)C)c(O)c(C(C)(C)C)c1)Sc1cc(C(C)(C)C)c(OCCO)c(C(C)(C)C)c1 [compound 17, 2,6-Di-tert-butyl-4-{1-[3,5-di-tert-butyl-4-(2-hydroxy-ethoxy)-phenylsulfanyl]-1-methyl-ethylsulfanyl}-phenol] | – | 146 to 147 | – | – | – | –
